Test results from patent US20090232915A1, “MIXTURES WITH A COLLAGEN SYNTHESIS BOOSTING ACTION” (SYMRISE GmbH & Co., KG, priority 2008, published 2009).
Several values for one entry are separate records, joined by “and”; a condition that tells them apart may be missing. Equal values may be shown once.

Test system: normal human dermal fibroblasts (NHDF)
Assay: Collagen synthesis boosting activity, Sirius Red staining of collagen in fibroblast monolayer (96 well)
Assay type: cell-based
Settings: 48 h incubation
Experimental: Method for determining the collagen synthesis boosting activity of selected substances of natural or synthetic origin.
Fibroblasts are responsible for collagen synthesis in the dermis layer of the skin. The test system involves culturing normal human dermal fibroblasts (NHDF) in a “monolayer” culture in 96 well MTPs, incubating them over a defined period with test substances and then determining the increase in collagen qualitatively by a staining method.
The principle of the assay is based on histological, specific staining of the soluble collagen (predominantly type I and III collagen) with the assistance of the dye Sirius Red (Direct Red 80). Sirius Red is an anionic dye having sulfonic acid groups attached to its side chains. These sulfonic acid groups react with the side chain groups of the amino acids (proline, hydroxyproline, lysine and hydroxylysine) predominantly occurring in collagen, it being necessary for an intact collagen structure to be present.
The model used for the assay design is the procedure described in B. J. Walsh et al., Analytical Biochemistry 203, 187-190 (1992) for the quantitative determination of collagen on the 96 well scale. […]
After a 24 h adaptation phase for the NHDF, the cells are incubated (37° C., 5% CO2) for 48 h with the incubation solution and corresponding control solutions (solvent and blank). […] The absorption of the resultant dye solution can be determined photometrically at 540 nm.
Thanks to the linear relationship between collagen content and the OD values arising from staining, the increase in OD is determined for qualitative assessment of the collagen synthesis boosting effect. To this end, the mean and standard deviations of the controls and the test samples are calculated and then a background or blank correction is made. […]
The synergy index (SI) values of the ternary mixtures according to the invention were calculated according to Kull (literature: F. C. Kull et al, Applied Microbiology vol. 9, p. 538-541 (1961); D. C. Steinberg, Cosmetics & Toiletries vol. 115(11), 59-62 (2000) by means of the following equation. […]

[1] = usage concentration 1.020 mg/ml

Row | SMILES | Collagen synthesis boost [%], relative to untreated control (usage concentration 0.362 mg/ml) | Collagen synthesis boost [%], relative to untreated control [1]
1 | O=C1O[C@H]([C@@H](O)CO)C([O-])=C1OP(=O)([O-])[O-].O=C1O[C@H]([C@@H](O)CO)C([O-])=C1OP(=O)([O-])[O-].[Mg+2].[Mg+2].[Mg+2] [Magnesium ascorbyl phosphate (Bio172), Magnesium ascorbyl phosphate] | 66.97% and 67.44% | 
2 | O=C1O[C@H]([C@@H](O)CO)C([O-])=C1OP(=O)([O-])[O-].O=C1O[C@H]([C@@H](O)CO)C([O-])=C1OP(=O)([O-])[O-].[Mg+2].[Mg+2].[Mg+2] [Magnesium ascorbyl phosphate (Bio1300/1), Magnesium ascorbyl phosphate] |  | 141.13%
3 | O=C1O[C@H]([C@@H](O)CO)C([O-])=C1OP(=O)([O-])[O-].[Na+].[Na+].[Na+] [Sodium ascorbyl phosphate (Bio1586), Sodium ascorbyl phosphate] |  | 144.57%
